For the experiment, the target named is JAK1 (Homo sapiens (Human), UniProt P23458). Kind of experiment: Analysis of JAK1 activity inhibition ability (ADP-Glo Kinase Assay). The experiment is classed as biochemical. The following applies: JAK1 enzyme, ADP-Glo luminescence, ATP 250 uM, IRS-itide substrate, 30° C. 40 minutes; read-out: IC50. The protocol: Test Example 1: Analysis of JAK1 Activity Inhibition Ability of Compound of Formula 1 (ADP-Glo™ Kinase Assay)
Chain of JAK1 (P23458 whole entry): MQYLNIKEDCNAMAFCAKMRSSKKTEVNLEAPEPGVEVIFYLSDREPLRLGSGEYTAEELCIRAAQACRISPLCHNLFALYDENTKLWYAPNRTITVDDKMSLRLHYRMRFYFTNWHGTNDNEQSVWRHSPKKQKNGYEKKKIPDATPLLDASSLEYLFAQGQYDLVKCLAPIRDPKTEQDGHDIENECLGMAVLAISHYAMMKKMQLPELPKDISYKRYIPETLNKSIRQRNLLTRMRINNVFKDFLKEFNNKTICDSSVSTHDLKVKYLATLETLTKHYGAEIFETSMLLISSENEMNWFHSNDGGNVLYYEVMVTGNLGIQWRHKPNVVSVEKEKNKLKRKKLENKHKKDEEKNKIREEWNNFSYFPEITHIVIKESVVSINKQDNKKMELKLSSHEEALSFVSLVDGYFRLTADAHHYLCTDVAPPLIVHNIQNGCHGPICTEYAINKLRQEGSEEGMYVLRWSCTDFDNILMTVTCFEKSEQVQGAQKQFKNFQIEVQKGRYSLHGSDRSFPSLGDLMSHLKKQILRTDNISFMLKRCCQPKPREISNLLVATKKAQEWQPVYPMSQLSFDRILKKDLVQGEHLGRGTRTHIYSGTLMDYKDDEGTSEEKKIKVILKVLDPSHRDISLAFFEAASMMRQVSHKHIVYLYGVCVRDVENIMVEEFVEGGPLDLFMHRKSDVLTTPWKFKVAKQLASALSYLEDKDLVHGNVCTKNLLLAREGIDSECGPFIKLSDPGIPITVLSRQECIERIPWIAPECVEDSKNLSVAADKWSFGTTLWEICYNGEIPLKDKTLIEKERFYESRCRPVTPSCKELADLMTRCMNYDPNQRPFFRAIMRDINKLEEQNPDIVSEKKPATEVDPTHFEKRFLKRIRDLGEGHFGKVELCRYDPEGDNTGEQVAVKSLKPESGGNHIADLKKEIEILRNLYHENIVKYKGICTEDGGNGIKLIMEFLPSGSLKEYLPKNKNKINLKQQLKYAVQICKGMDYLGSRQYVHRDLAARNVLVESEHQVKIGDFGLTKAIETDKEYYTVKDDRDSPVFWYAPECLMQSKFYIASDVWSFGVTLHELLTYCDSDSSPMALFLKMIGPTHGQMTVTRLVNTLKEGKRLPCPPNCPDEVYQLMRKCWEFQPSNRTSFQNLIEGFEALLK
A JAK inhibition ability of a compound according to the present invention was identified as follows.
A control material and a test material were prepared for each concentration, in such a way that they were diluted by means of DMSO. At the same time, ATP (250 uM) and JAK substrate (JAK1, IRS-itide 40 ng/mL) were prepared, in such a way that they were diluted by means of kinase buffer (40 mM Tris-HCl pH 7.5, 20 mM MgCl2, 0.5 mg/mL BSA, 50 uM DTT).
A test drug for each concentration, substrate, ATP and JAK enzyme were mixed in an eppendorf tube, and reacted in a 30° C. incubator for 40 minutes.
ADP-Glo™ reagent contained in ADP-Glo™ Kinase Enzyme System (Promega, USA, V9571) was added into each eppendorf tube, and reacted in a 30° C. incubator for 40 minutes. A kinase detection reagent contained in ADP-Go™ Kinase Enzyme System was inserted into the eppendorf tube, then an integration time was set to 1 second by using Wallac Victor 2™, then luminescence was measured, and then JAKs phosphorylation inhibition ability of the test material was analyzed. The concentration of the compound, which causes 50% of the JAK enzyme activity inhibition in comparison With the control group, was determined as IC50 (nM) of an inhibitor, wherein the results thereof are shown in a following table 1.
Background: In ADP-Glo the light output rises with the ADP produced.
On to `CC(Br)CC(=O)N1CC=C(c2cc(NC(=O)C3CC3)nc3[nH]ccc23)C(C)C1` (centres unmarked) [Example 338, N-(4-(1-(3-bromobutanoyl)-3-methyl-1,2,3,6-tetrahydropyridin-4-yl)-1H-pyrrolo[2,3-b]pyridin-6-yl)cyclopropanecarboxamide], for which the IC50 – broadly, the point on the concentration scale where inhibition reaches its midpoint – was 20 to 200 nM.

As for `CC1CN(C(=O)c2ccncc2O)CC=C1c1cc(NC(=O)C2CC2)nc2[nH]ccc12` (centres unmarked) [Example 377, N-(4-(1-(3-hydroxyisonicotinoyl)-3-methyl-1,2,3,6-tetrahydropyridin-4-yl)-1H-pyrrolo[2,3-b]pyridin-6-yl)cyclopropanecarboxamide], the IC50 was over 200 nM.

With `N#CCCCS(=O)(=O)Oc1ccc(-c2cc(NC(=O)C3CC3)nc3[nH]ccc23)cc1` [Example 639, 4-(6-(cyclopropanecarboxamido)-1H-pyrrolo[2,3-b]pyridin-4-yl)phenyl 3-cyanopropane-1-sulfonate], the IC50 was in the range of 20 to 200 nM.

Turning to `CCCS(=O)(=O)Nc1ccc(-c2cc(NC(=O)C3CC3)nc3[nH]ccc23)c(C)c1` [Example 95, N-(4-(2-methyl-4-(propylsulfonamido)phenyl)-1H-pyrrolo[2,3-b]pyridin-6-yl)cyclopropanecarboxamide], the IC50 fell in the range of 20 to 200 nM.

For the compound `CCS(=O)(=O)Nc1ccc(-c2cc(NC(=O)C3CC3)nc3[nH]cnc23)cc1` [Example 207, N-(7-(4-(ethylsulfonamido)phenyl)-3H-imidazo[4,5-b]pyridin-5-yl)cyclopropanecarboxamide], the IC50 was over 200 nM.

Consider `O=C(Nc1cc(C2=CCN(C(=O)c3cnoc3)CC2)c2cc[nH]c2n1)C1CC1` [Example 287, N-(4-(1-(isoxazole-4-carbonyl)-1,2,3,6-tetrahydropyridin-4-yl)-1H-pyrrolo[2,3-b]pyridin-6-yl)cyclopropanecarboxamide], for which the IC50 fell in the range of 20 to 200 nM.

For the compound `CC1CC(c2cc(NC(=O)C3CC3)nc3[nH]ccc23)=CCN1C(=O)CC#N` (centres unmarked) [Example 363, N-(4-(1-(2-cyanoacetyl)-2-methyl-1,2,3,6-tetrahydropyridin-4-yl)-1H-pyrrolo[2,3-b]pyridin-6-yl)cyclopropanecarboxamide], the IC50 is under 20 nM.

In the case of `N#CCCC(=O)N1CC=C(c2cc(NC(=O)C3CC3)nc3[nH]ccc23)C1` [Example 427, N-(4-(1-(3-cyanopropanoyl)-2,5-dihydro-1H-pyrrol-3-yl)-1H-pyrrolo[2,3-b]pyridin-6-yl)cyclopropanecarboxamide], the IC50 is over 200 nM.

`O=C(Nc1cc(-c2ccc(OCc3ccc(F)cc3)cc2)c2cc[nH]c2n1)C1CC1` [Example 641, N-(4-(4-((4-fluorobenzyl)oxy)phenyl)-1H-pyrrolo[2,3-b]pyridin-6-yl)cyclopropanecarboxamide]: the IC50 is over 200 nM.

Regarding `CCS(=O)(=O)Nc1ccc(-c2cc(NC(=O)C3CC3)nc3[nH]ccc23)c(C)c1` [Example 29, N-(4-(4-(ethylsulfonamido)-2-methylphenyl)-1H-pyrrolo[2,3-b]pyridin-6-yl)cyclopropanecarboxamide], the IC50 was under 20 nM.

As for `CCCS(=O)(=O)Nc1ccc(-c2cc(NC(=O)C3CC3)nc3[nH]ccc23)c(C(=O)OC)c1` [Example 141, methyl 2-(6-(cyclopropanecarboxamido)-1H-pyrrolo[2,3-b]pyridin-4-yl)-5-(propylsulfonamido)benzoate], the IC50 is over 200 nM.

Consider `CCS(=O)(=O)Nc1ccc(-c2cc(NC(=O)C3CC3C)nc3[nH]ccc23)cc1` (centres unmarked) [Example 35, N-(4-(4-(ethylsulfonamido)phenyl)-1H-pyrrolo[2,3-b]pyridin-6-yl)-2-methylcyclopropane-1-carboxamide], for which the IC50 is under 20 nM.

For the compound `N#Cc1cc(NS(=O)(=O)CC2(C#N)CC2)ccc1-c1cc(NC(=O)C2CC2)nc2[nH]ccc12` [Example 147, N-(4-(2-cyano-4-(((1-cyanocyclopropyl)methyl)sulfonamido)phenyl)-1H-pyrrolo[2,3-b]pyridin-6-yl)cyclopropanecarboxamide], the IC50 is over 200 nM.

`O=C(Nc1cc(N2CC3CCC(C2)N3S(=O)(=O)CCCC(F)(F)F)c2cc[nH]c2n1)C1CC1` [Example 666, N-(4-(8-((4,4,4-trifluorobutyl)sulfonyl)-3,8-diazabicyclo[3.2.1]octan-3-yl)-1H-pyrrolo[2,3-b]pyridin-6-yl)cyclopropanecarboxamide]: the IC50 was over 200 nM.

On to `CS(=O)(=O)N1CCN(S(=O)(=O)Nc2ccc(-c3cc(NC(=O)C4CC4)nc4[nH]ccc34)cc2)CC1` [Example 230, N-(4-(4-((4-(methylsulfonyl)piperazine)-1-sulfonamido)phenyl)-1H-pyrrolo[2,3-b]pyridin-6-yl)cyclopropanecarboxamide], for which the IC50 is under 20 nM.

Turning to `O=C(Nc1cc(-c2ccc(NS(=O)(=O)c3ccc4c(c3)CCO4)cc2)c2cc[nH]c2n1)C1CC1` [Example 22, N-(4-(4-((2,3-dihydrobenzofuran)-5-sulfonamido)phenyl)-1H-pyrrolo[2,3-b]pyridin-6-yl)cyclopropanecarboxamide], the IC50 lay in the range of 20 to 200 nM.

As to `CC1CN(C(=O)c2ccc(-c3ccc(F)cc3)[nH]c2=O)CC=C1c1cc(NC(=O)C2CC2)nc2[nH]ccc12` (centres unmarked) [Example 322, N-(4-(1-(6-(4-fluorophenyl)-2-oxo-1,2-dihydropyridine-3-carbonyl)-3-methyl-1,2,3,6-tetrahydropyridin-4-yl)-1H-pyrrolo[2,3-b]pyridin-6-yl)cyclopropanecarboxamide], the 50% inhibitory concentration (IC50) is over 200 nM.

For `O=C(Nc1cc(-c2ccc(OS(=O)(=O)CCCF)cc2)c2cc[nH]c2n1)C1CC1` [Example 635, 4-(6-(cyclopropanecarboxamido)-1H-pyrrolo[2,3-b]pyridin-4-yl)phenyl 3-fluoropropane-1-sulfonate], the IC50 is 20 to 200 nM.

Take `O=C(Nc1cc(C2=CCN(S(=O)(=O)CC3CCOCC3)CC2)c2cc[nH]c2n1)C1CC1` [Example 169, N-(4-(1-(((tetrahydro-2H-pyran-4-yl)methyl)sulfonyl)-1,2,3,6-tetrahydropyridin-4-yl)-1H-pyrrolo[2,3-b]pyridin-6-yl)cyclopropanecarboxamide]: the IC50 is over 200 nM.

In the case of `N#Cc1ccc(C(=O)N2CC=C(c3cc(NC(=O)C4CC4)nc4[nH]ccc34)CC2)cc1` [Example 293, N-(4-(1-(4-cyanobenzoyl)-1,2,3,6-tetrahydropyridin-4-yl)-1H-pyrrolo[2,3-b]pyridin-6-yl)cyclopropanecarboxamide], the 50% inhibitory concentration (IC50) lay within 20 to 200 nM.

Take `CCCS(=O)(=O)N1CC=C(c2cc(NC(=O)C3CC3)nc3[nH]ccc23)C1` [Example 212, N-(4-(1-(propylsulfonyl)-2,5-dihydro-1H-pyrrol-3-yl)-1H-pyrrolo[2,3-b]pyridin-6-yl)cyclopropanecarboxamide]: the IC50 is over 200 nM.

Regarding `CS(=O)(=O)CCS(=O)(=O)Nc1ccc(-c2cc(NC(=O)C3CC3)nc3[nH]ccc23)cc1` [Example 56, N-(4-(4-((2-(methylsulfonyl)ethyl)sulfonamido)phenyl)-1H-pyrrolo[2,3-b]pyridin-6-yl)cyclopropanecarboxamide], the IC50 was under 20 nM.

Regarding `CC(C)(C)OC(=O)N1CCN(c2cc(NC(=O)C3CC3)nc3[nH]ccc23)CC1` [Example 692, tert-butyl 4-(6-(cyclopropanecarboxamido)-1H-pyrrolo[2,3-b]pyridine-4-yl)piperazin-1-carboxylate], the IC50 is over 200 nM.

Take `CCS(=O)(=O)Oc1ccc(-c2cc(NC(=O)C3CC3)nc3[nH]ccc23)cc1` [Example 629, 4-(6-(cyclopropanecarboxamido)-1H-pyrrolo[2,3-b]pyridin-4-yl)phenyl ethanesulfonate]: the IC50 was in the range of 20 to 200 nM.

Consider `CC1CN(C(=O)c2c(Cl)cncc2Cl)CC=C1c1cc(NC(=O)C2CC2)nc2[nH]ccc12` (centres unmarked) [Example 374, N-(4-(1-(3,5-dichloroisonicotinoyl)-3-methyl-1,2,3,6-tetrahydropyridin-4-yl)-1H-pyrrolo[2,3-b]pyridin-6-yl)cyclopropanecarboxamide], for which the IC50 was in the range of 20 to 200 nM.

Take `N#CC1CCN(C(=O)Cc2ccc(-c3cc(NC(=O)C4CC4)nc4[nH]ccc34)cc2)CC1` [Example 548, N-(4-(4-(2-(4-cyanopiperidin-1-yl)-2-oxoethyl)phenyl)-1H-pyrrolo[2,3-b]pyridin-6-yl)cyclopropanecarboxamide]: the IC50 fell in the range of 20 to 200 nM.

Consider `Cc1cc(NS(=O)(=O)CCCC(F)(F)F)ccc1-c1cc(NC(=O)C2CC2)nc2[nH]ccc12` [Example 117, N-(4-(2-methyl-4-((4,4,4-trifluorobutyl)sulfonamido)phenyl)-1H-pyrrolo[2,3-b]pyridin-6-yl)cyclopropanecarboxamide], for which the IC50 is under 20 nM.

Turning to `CCCS(=O)(=O)Nc1ccc(-c2cc(NC(=O)C3CC3)nc3[nH]ccc23)c(CC)c1` [Example 115, N-(4-(2-ethyl-4-(propylsulfonamido)phenyl)-1H-pyrrolo[2,3-b]pyridin-6-yl)cyclopropanecarboxamide], the IC50 was under 20 nM.

Take `CCCS(=O)(=O)Nc1ccc(-c2cc(NC(=O)C3CC3)nc3[nH]cc(C)c23)cc1` [Example 94, N-(3-methyl-4-(4-(propylsulfonamido)phenyl)-1H-pyrrolo[2,3-b]pyridin-6-yl)cyclopropanecarboxamide]: the IC50 was 20 to 200 nM.

These data come from patent US11524968B2, “Heterocyclic compound as a protein kinase inhibitor” (HK inno.N Corporation, priority 2017, dated 2022).
